Among the data in patent publication US20140113898A1, “BISARYLSULFONE AND DIALKYLARYLSULFONE COMPOUNDS AS CALCIUM CHANNEL BLOCKERS” (Zalicus Pharmaceuticals Ltd., priority 2010, published 2014) are IC50 values, retold here.

SMILES strings stand for the structures.

T1 sequence (Q00975 whole entry): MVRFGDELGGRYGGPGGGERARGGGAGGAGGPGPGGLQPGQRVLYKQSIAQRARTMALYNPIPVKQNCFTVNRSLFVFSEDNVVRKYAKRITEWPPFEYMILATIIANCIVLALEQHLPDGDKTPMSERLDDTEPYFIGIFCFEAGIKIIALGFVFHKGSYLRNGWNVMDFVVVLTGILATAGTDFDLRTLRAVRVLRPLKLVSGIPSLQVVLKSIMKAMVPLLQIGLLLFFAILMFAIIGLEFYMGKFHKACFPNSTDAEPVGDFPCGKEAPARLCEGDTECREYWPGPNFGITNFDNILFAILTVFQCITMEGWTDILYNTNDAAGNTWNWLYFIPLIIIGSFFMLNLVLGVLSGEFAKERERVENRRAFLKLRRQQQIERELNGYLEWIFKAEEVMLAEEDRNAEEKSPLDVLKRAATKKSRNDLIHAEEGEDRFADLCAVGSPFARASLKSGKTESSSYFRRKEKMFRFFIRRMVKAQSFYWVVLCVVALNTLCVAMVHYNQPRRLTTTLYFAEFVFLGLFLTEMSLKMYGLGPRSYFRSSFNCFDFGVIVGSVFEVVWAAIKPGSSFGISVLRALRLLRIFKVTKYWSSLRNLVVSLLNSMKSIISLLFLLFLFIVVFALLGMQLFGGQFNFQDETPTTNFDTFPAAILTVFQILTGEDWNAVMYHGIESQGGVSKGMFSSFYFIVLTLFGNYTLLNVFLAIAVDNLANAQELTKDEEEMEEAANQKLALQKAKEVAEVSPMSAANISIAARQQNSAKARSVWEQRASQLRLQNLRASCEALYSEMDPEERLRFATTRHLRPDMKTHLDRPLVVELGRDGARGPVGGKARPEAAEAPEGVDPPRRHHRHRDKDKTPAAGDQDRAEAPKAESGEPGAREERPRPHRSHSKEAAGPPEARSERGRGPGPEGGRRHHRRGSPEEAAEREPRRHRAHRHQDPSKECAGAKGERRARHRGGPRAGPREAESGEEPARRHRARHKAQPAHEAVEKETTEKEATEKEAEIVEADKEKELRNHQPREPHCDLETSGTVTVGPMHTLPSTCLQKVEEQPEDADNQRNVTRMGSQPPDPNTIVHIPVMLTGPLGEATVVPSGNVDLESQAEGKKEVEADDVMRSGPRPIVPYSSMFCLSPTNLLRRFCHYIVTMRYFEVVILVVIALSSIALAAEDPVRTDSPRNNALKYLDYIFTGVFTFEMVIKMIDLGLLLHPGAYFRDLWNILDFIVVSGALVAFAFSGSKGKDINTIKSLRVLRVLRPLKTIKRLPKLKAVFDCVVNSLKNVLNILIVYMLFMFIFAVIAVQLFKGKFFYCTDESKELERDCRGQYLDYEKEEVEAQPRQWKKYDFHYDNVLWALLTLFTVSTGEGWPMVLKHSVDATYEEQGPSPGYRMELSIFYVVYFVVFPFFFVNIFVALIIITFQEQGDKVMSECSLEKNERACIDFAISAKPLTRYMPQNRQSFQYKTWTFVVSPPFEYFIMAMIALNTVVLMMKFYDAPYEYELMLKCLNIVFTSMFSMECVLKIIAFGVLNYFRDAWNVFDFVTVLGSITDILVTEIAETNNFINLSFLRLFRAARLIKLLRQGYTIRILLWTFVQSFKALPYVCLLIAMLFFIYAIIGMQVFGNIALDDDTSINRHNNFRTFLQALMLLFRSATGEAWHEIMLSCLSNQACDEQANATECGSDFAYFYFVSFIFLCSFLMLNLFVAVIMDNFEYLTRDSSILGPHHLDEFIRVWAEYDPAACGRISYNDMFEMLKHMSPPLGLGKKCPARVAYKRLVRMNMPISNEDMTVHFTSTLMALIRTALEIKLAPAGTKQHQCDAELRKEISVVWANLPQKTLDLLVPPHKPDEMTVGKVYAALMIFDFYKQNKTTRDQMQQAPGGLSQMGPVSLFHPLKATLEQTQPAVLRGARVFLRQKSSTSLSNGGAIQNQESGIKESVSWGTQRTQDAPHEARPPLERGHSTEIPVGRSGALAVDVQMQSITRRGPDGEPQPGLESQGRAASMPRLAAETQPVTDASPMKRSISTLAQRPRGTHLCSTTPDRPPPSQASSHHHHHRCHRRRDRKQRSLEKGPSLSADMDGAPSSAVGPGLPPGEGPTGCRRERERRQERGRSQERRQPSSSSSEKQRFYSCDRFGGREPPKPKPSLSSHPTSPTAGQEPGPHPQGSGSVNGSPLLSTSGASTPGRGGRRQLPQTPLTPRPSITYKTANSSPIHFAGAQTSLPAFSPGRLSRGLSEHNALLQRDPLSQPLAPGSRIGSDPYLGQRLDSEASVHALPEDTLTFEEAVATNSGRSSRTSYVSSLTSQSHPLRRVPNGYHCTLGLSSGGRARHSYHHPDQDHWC
T1 sequence (P54284 whole entry partner): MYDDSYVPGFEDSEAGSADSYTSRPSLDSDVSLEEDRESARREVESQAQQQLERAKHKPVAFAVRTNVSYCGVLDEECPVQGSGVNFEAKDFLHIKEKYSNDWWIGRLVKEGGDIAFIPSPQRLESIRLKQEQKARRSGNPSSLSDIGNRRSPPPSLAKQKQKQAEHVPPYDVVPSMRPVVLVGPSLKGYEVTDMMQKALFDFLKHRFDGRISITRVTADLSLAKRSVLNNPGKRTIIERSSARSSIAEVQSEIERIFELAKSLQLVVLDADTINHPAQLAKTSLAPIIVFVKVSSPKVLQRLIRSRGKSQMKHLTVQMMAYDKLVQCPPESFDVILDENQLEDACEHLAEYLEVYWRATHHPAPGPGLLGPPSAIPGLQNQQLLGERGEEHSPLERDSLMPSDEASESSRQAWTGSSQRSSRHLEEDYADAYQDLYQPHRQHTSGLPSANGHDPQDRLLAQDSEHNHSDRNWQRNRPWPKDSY
T1 sequence (P54289 25-946 partner limits assumed): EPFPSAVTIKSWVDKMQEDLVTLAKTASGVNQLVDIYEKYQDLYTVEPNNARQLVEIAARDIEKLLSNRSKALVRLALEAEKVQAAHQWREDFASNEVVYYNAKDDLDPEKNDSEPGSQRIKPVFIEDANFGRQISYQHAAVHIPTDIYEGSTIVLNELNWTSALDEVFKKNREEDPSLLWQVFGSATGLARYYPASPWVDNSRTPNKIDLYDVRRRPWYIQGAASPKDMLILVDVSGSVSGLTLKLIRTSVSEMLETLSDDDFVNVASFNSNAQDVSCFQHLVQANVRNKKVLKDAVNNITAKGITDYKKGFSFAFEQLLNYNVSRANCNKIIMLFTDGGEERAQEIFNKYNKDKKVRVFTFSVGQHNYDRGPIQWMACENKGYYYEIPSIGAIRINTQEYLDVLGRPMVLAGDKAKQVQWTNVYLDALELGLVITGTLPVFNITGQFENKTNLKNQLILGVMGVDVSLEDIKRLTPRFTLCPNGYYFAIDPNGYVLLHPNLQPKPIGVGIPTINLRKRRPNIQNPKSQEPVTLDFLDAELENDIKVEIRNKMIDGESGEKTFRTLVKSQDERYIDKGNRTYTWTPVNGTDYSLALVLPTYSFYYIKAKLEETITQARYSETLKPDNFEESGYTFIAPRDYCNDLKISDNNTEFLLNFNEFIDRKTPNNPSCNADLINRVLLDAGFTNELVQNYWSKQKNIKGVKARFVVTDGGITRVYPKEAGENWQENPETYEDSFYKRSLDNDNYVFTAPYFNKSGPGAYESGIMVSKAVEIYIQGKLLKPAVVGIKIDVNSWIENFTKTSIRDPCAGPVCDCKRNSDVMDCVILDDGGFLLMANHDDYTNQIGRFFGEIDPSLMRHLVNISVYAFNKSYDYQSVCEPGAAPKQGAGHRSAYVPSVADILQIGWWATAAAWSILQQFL
T1 sequence (P54289 947-1103 partner limits assumed): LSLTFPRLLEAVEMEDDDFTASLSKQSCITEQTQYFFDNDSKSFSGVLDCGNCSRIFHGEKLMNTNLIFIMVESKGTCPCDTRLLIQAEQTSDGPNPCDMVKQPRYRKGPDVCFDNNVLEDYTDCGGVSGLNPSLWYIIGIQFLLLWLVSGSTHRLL

The first experiment concerns the target T1, CaV2.2 (Homo sapiens, UniProt Q00975).
T1 construct: expressed in transfected cells; host or cells: unnamed doxycycline-inducible cell line
Nature of the experiment: High-throughput CaV2.2/Kir2.3 FLIPR fluorescent assay. It counts as cell-based. The settings on record: Table 4; Fluo-4 FLIPR; closed or inactivated state not stated; read-out: FLIPR data CaV2.2. The procedure:
Cells were plated in 384-well, clear-bottom, black-walled, poly-D-lysine coated plates (Becton Dickinson, Franklin Lake, N.J.) 2 days prior to use in the FLIPR assay. 100 μL of cells (1.4×10^6 cell/mL) containing doxycyline (Sigma-Aldrich, 1.5 μg/mL; to induce channel expression) were added to each well using a Multidrop (Thermo Scientific, Waltham, Mass.) and were maintained in 5% CO2 incubator at 37° C. On the morning of the assay, cells were transferred to a 5% CO2 incubator at 29° C.
Cells were washed with a wash buffer containing (in mM): 118 NaCl, 18.4 HEPES, 11.7 D-glucose, 2 CaCl2, 0.5 MgSO4, 4.7 KCl, 1.2 KH2PO4, pH adjusted to 7.2 with NaOH. 4.4 μM of the fluorescent indicator dye, Fluo-4 (Invitrogen), prepared in pluronic acid (Sigma-Aldrich), was loaded into the wells and incubated for 45 minutes at 29° C. in 5% CO2. Cells were then rinsed with either a 2 mM KCl closed-state buffer (in mM: 138.5 NaCl, 10 HEPES, 10 D-glucose, 1 CaCl2, and 2 KCl, with the pH adjusted to 7.4 with NaOH) when performing the closed-state assay or 12.5 mM KCl inactivated-state buffer (in mM: 128 NaCl, 10 HEPES, 10 D-glucose, 1 CaCl2, and 12.5 mM KCl, with the pH adjusted to 7.4 with NaOH) when performing the inactivated-state assay.
Calcium entry was evoked with an addition of 130 mM KCl stimulation buffer (in mM: 10.5 NaCl, 10 HEPES, 10 D-glucose, 1 CaCl2, and 130 KCl, with the pH adjusted to 7.4 with NaOH) for both the closed-state or inactivated-state assay. A change in the Fluo-4 fluorescence signal was assessed using FLIPR^TETRA™ instrument (Molecular Devices, Sunnyvale, Calif.) for 3 minutes following the elevation of extracellular KCl using an illumination wavelength of 470-495 nm with emissions recorded at 515-575 nm.
Concentration-dependent response curves were obtained by comparing the fluorescence signal in the presence of compound and fitted with a logistic function (1) to obtain the concentration that inhibited 50% (IC50) of the RLU signal using OriginPro v.7.5 software (OriginLab, Northampton, Mass.).
To assess the quality of the FLIPR assays the Z-factor (2) was used to quantify the suitability of the assay conditions using the following equation: […]
Data are expressed as mean and standard deviation (SD).
In the case of `O=C(NCc1ccc(S(=O)(=O)c2cccc(C(F)(F)F)c2)cc1)[C@@H]1C[C@H](F)CN1` [Compound 70, (2S,4S)-4-fluoro-N-(4-((3-(trifluoromethyl)phenyl)sulfonyl)benzyl)pyrrolidine-2-carboxamide], the IC50 is 4.74 µM.
Same read-out and setting: the same measure for `NC1(C(=O)NCc2ccc(S(=O)(=O)c3cccc(C(F)(F)F)c3)cc2)CCC1` [Compound 66, 1-amino-N-(4-((3-(trifluoromethyl)phenyl)sulfonyl)benzyl)cyclobutanecarboxamide]: 1.93 µM.
Same read-out and setting: the same measure for `O=C(NCc1cc(S(=O)(=O)c2cccc(C(F)(F)F)c2)ccn1)c1cn2cc(C(F)(F)F)ccc2n1` [Compound 116, 6-(trifluoromethyl)-N-((4-((3-(trifluoromethyl)phenyl)sulfonyl)pyridin-2-yl)methyl)imidazo[1,2-a]pyridine-2-carboxamide]: 1.17 µM.
Still for that read-out and setting: the same measure for `O=C(NCc1ccccc1S(=O)(=O)c1cccc(C(F)(F)F)c1)[C@H]1CCCN1` [Compound 78, (R)-N-(2-((3-(trifluoromethyl)phenyl)sulfonyl)benzyl)pyrrolidine-2-carboxamide]: 3.75 µM; for `NC1(C(=O)NCc2ccc(S(=O)(=O)c3cccc(C(F)(F)F)c3)cc2)CCS(=O)(=O)CC1` [Compound 61, 4-amino-N-(4-((3-(trifluoromethyl)phenyl)sulfonyl)benzyl)tetrahydro-2H-thiopyran-4-carboxamide 1,1-dioxide]: 4.68 µM; for `NC1(C(=O)NCc2ccc(S(=O)(=O)c3cccc(C(F)(F)F)c3)cc2)CC1` [Compound 65, 1-amino-N-(4-((3-(trifluoromethyl)phenyl)sulfonyl)benzyl)cyclopropanecarboxamide]: 5.63 µM.
With `COc1cc(C(=O)NCc2ccc(S(=O)(=O)c3cccc(C(F)(F)F)c3)cn2)cc(Cl)n1` [Compound 101, 2-chloro-6-methoxy-N-((5-((3-(trifluoromethyl)phenyl)sulfonyl)pyridin-2-yl)methyl)isonicotinamide], the IC50 stood at 1.46 µM.
The same measure, in the same setting: the same measure for `O=C(CCC(F)(F)F)NCc1ccccc1S(=O)(=O)c1cccc(C(F)(F)F)c1` [Compound 55, 4,4,4-trifluoro-N-(2-((3-(trifluoromethyl)phenyl)sulfonyl)benzyl)butanamide]: 2.68 µM; for `O=C(NCc1ccccc1S(=O)(=O)c1cccc(C(F)(F)F)c1)c1cnc(C(F)(F)F)nc1` [Compound 45, 2-(trifluoromethyl)-N-(2-((3-(trifluoromethyl)phenyl)sulfonyl)benzyl)pyrimidine-5-carboxamide]: 1.11 µM.

Still in this experiment, the particulars now being: Table 5; Fluo-4 FLIPR; closed or inactivated state not stated; read-out: FLIPR data CaV2.2.
As for `CC(C)(CCNC(=O)c1cc(F)ccc1S(C)(=O)=O)S(=O)(=O)c1cccc(C(F)(F)F)c1` [Compound 194, 5-fluoro-N-(3-methyl-3-((3-(trifluoromethyl)phenyl)sulfonyl)butyl)-2-(methylsulfonyl)benzamide], the IC50 was 1.53 µM.
On the same count and under the same terms, in the case of `CC(C)(CCNC(=O)C1(N)CCCCC1)S(=O)(=O)c1cccc(C(F)(F)F)c1` [Compound 207, 1-amino-N-(3-methyl-3-((3-(trifluoromethyl)phenyl)sulfonyl)butyl)cyclohexanecarboxamide] it was 1.39 µM; in that of `CC(C)(CNC(=O)c1ccc(C(F)(F)F)nc1S(C)(=O)=O)S(=O)(=O)c1cccc(C(F)(F)F)c1` [Compound 155, N-(2-methyl-2-((3-(trifluoromethyl)phenyl)sulfonyl)propyl)-2-(methylsulfonyl)-6-(trifluoromethyl)nicotinamide], 1.36 µM.
Consider `CC(C)(CNC(=O)c1ccc(S(C)(=O)=O)cc1)S(=O)(=O)c1cccc(C(F)(F)F)c1` [Compound 171, N-(2-methyl-2-((3-(trifluoromethyl)phenyl)sulfonyl)propyl)-4-(methylsulfonyl)benzamide], for which the IC50 stood at 8.12 µM.
The same measure, in the same setting: the same measure for `CC(C)(C(=O)Nc1ccc(Oc2ccncc2)cc1)S(=O)(=O)c1cccc(C(F)(F)F)c1` [Compound 143, 2-methyl-N-(4-(pyridin-4-yloxy)phenyl)-2-((3-(trifluoromethyl)phenyl)sulfonyl)propanamide]: 10 µM; for `CC(C)(CCNC(=O)Cc1cccc(S(C)(=O)=O)c1)S(=O)(=O)c1cccc(C(F)(F)F)c1` [Compound 193, N-(3-methyl-3-((3-(trifluoromethyl)phenyl)sulfonyl)butyl)-2-(3-(methylsulfonyl)phenyl)acetamide]: 1.68 µM; for `Cc1ccc(C(=O)NCC(C)(C)S(=O)(=O)c2cccc(C(F)(F)F)c2)c(C)c1` [Compound 169, 2,4-dimethyl-N-(2-methyl-2-((3-(trifluoromethyl)phenyl)sulfonyl)propyl)benzamide]: 1.36 µM.
The same measure, in the same setting: the same measure for `CC(C)(CCNC(=O)CC1(N)CCCCC1)S(=O)(=O)c1cccc(C(F)(F)F)c1` [Compound 223, 2-(1-aminocyclohexyl)-N-(3-methyl-3-((3-(trifluoromethyl)phenyl)sulfonyl)butyl)acetamide]: 0.36 µM; for `CO[C@H]1CN[C@@H](C(=O)NCCC(C)(C)S(=O)(=O)c2cccc(C(F)(F)F)c2)C1` [Compound 199, (2R,4R)-4-methoxy-N-(3-methyl-3-((3-(trifluoromethyl)phenyl)sulfonyl)butyl)pyrrolidine-2-carboxamide]: 3.31 µM; for `CC(C)(CN1Cc2nc(C(F)(F)F)ccc2C1=O)S(=O)(=O)c1cccc(C(F)(F)F)c1` [Compound 182, 6-(2-methyl-2-((3-(trifluoromethyl)phenyl)sulfonyl)propyl)-2-(trifluoromethyl)-6,7-dihydro-5H-pyrrolo[3,4-b]pyridin-5-one]: 10 µM.
On the same count and under the same terms, in the case of `Cc1cc(C(=O)NCC(C)(C)S(=O)(=O)c2cccc(C(F)(F)F)c2)cc(C)c1O` [Compound 167, 4-hydroxy-3,5-dimethyl-N-(2-methyl-2-((3-(trifluoromethyl)phenyl)sulfonyl)propyl)benzamide] it was 1.4 µM; in that of `CC(C)(CCNC(=O)[C@@H]1C[C@@H](O)CN1)S(=O)(=O)c1cccc(C(F)(F)F)c1` [Compound 217, (2S,4R)-4-hydroxy-N-(3-methyl-3-((3-(trifluoromethyl)phenyl)sulfonyl)butyl)pyrrolidine-2-carboxamide], 8.17 µM; in that of `CC(C)(CCNC(=O)c1ccc(S(C)(=O)=O)cc1)S(=O)(=O)c1cccc(C(F)(F)F)c1` [Compound 191, N-(3-methyl-3-((3-(trifluoromethyl)phenyl)sulfonyl)butyl)-4-(methylsulfonyl)benzamide], 1.42 µM.
For the molecule `CC(C)(CCNC(=O)CC1CCNCC1)S(=O)(=O)c1cccc(C(F)(F)F)c1` [Compound 206, N-(3-methyl-3-((3-(trifluoromethyl)phenyl)sulfonyl)butyl)-2-(piperidin-4-yl)acetamide], the IC50 was determined as 10 µM.
Still for that read-out and setting: the same measure for `COc1cc(CCNC(=O)C(C)(C)S(=O)(=O)c2cccc(C(F)(F)F)c2)ccc1O` [Compound 139, N-(4-hydroxy-3-methoxyphenethyl)-2-methyl-2-((3-(trifluoromethyl)phenyl)sulfonyl)propanamide]: 1.22 µM; for `CC(C)(CNC(=O)c1ccnc(F)c1)S(=O)(=O)c1cccc(C(F)(F)F)c1` [Compound 177, 2-fluoro-N-(2-methyl-2-((3-(trifluoromethyl)phenyl)sulfonyl)propyl)isonicotinamide]: 10 µM.
On to `CC(C)(CCNC(=O)C1(N)CCOCC1)S(=O)(=O)c1cccc(C(F)(F)F)c1` [Compound 197, 4-amino-N-(3-methyl-3-((3-(trifluoromethyl)phenyl)sulfonyl)butyl)tetrahydro-2H-pyran-4-carboxamide], for which the IC50 stood at 10 µM.
Still for that read-out and setting: the same measure for `CC(C)(CCNC(=O)C1(N)CCC1)S(=O)(=O)c1cccc(C(F)(F)F)c1` [Compound 203, 1-amino-N-(3-methyl-3-((3-(trifluoromethyl)phenyl)sulfonyl)butyl)cyclobutanecarboxamide]: 5.85 µM; for `CC(C)(CCNC(=O)c1ccccc1S(C)(=O)=O)S(=O)(=O)c1cccc(C(F)(F)F)c1` [Compound 192, N-(3-methyl-3-((3-(trifluoromethyl)phenyl)sulfonyl)butyl)-2-(methylsulfonyl)benzamide]: 3.04 µM; for `CC(C)(N)C(=O)NCCC(C)(C)S(=O)(=O)c1cccc(C(F)(F)F)c1` [Compound 201, 2-amino-2-methyl-N-(3-methyl-3-((3-(trifluoromethyl)phenyl)sulfonyl)butyl)propanamide]: 10 µM.
